Starred links: 1 amine or outer side, 2 acyl side, 3 side chain; linkers in the order of their positions; H or OH if unused. Non-standard residues stand in square brackets, D forms with d. Residues, ends and D or L forms follow the SMILES beside them. Groups on a side chain read outwards from the residue. *: point of attachment. Biotin = O=C1N[C@H]2[C@H](CS[C@H]2CCCCC(=O)*)N1; X1 = CN(C)C(=O)/C=C/CC[C@H](N[*:1])C(=O)[*:2]; PEG4 = NCCOCCOCCOCCOCCC(=O)O; Dab = NCC[C@H](N)C(=O)O
What was measured:
[1] = tested on: normal rat kidney (NRK) cells; experiment: Uptake of fluorescent probe by NRK cells with or without α2M; format: cell-based
Description: (§1) (C) Fluorescently tagged α2M colocalizes strongly with HB-230.
FIG. 15. Uptake of HB-2121.
Puncta of two distinct sizes were observed.
To verify that HB230 internalization was dependent on TG2 activity, HB258 was designed and synthesized as a control probe. This dihydro-analog is otherwise identical to HB230 but lacks its electrophilic warhead and is therefore unable to irreversibly bond to the active site C277 residue of TG2.

trypsin = experiment: Metabolism by trypsin; format: in vitro ADME; conditions: role: substrate
Description: (§2) HB-2121 is analogous to the TG2 inhibitor/probe HB-230 but with one modification; the primary amide C-terminus of HB-230 was replaced with a tertiary dimethyl amide. This change greatly enhances the gastrointestinal stability of the probe.

chymotrypsin = experiment: Metabolism by chymotrypsin; format: in vitro ADME; conditions: role: substrate
Description: (§3) FIGS. 14A-14B. Metabolic stability of HB-230 and HB-2121. (A) HB-230 is transformed by chymotrypsin to give the C-terminal carboxylic acid. This metabolite is subsequently cleaved by carboxypeptidase to give the tetrapeptide without the terminal phenylalanine. (B) HB-2121 is stable to both chymotrypsin and carboxypeptidase mediated metabolism.
as §2

[2] = tested on: lysosomal-associated membrane protein (LAMP-1); experiment: Colocalization with RFP-tagged LAMP-1 in transfected NRK cells; format: cell-based, rat; conditions: co-incubated with α2M, 90 min; large puncta
Method: (§4) To establish the identity of these large intracellular puncta, NRK cells were transfected with RFP tagged lysosomal-associated membrane protein (LAMP-1). Wild-type and transfected cells were co-incubated with α2M and HB230 for 90 min prior to fixation. To test the hypothesis that the large puncta corresponded to early endosomes, fixed wild-type cells were stained with an antibody against early endosome antigen-1 (EEA-1).

LRP-1 knockout MEFs = experiment: Uptake of HB230 and α2M in LRP-1 knockout MEFs; format: cell-based; conditions: exogenous TRX and betamethasone, with α2M
pepsin = experiment: Metabolism by pepsin; format: in vitro ADME; conditions: role: substrate
Description: as §2

[3] = tested on: early endosome antigen-1 (EEA-1); experiment: Colocalization with early endosomes (EEA-1 antibody staining) in NRK cells; format: cell-based, rat; conditions: co-incubated with α2M, 90 min
Method: as §4

carboxypeptidase = experiment: Metabolism by carboxypeptidase; format: in vitro ADME; conditions: role: substrate, subsequent to chymotrypsin
Description: as §3, §2

WT MEFs = experiment: Uptake of HB230 and α2M in wild-type MEFs; format: cell-based; conditions: exogenous TRX and betamethasone, with α2M
Description: Low density lipoprotein (LDL) receptor-related protein 1 (LRP-1, a.k.a., (α2M receptor or CD91), a member of the LDL receptor family, is responsible for receptor-mediated endocytosis of α2M. Although this receptor is expressed on the surface of a wide range of cell types within the body, α2M endocytosis by LRP-1 is only triggered when this ubiquitous plasma protein undergoes a conformational change upon binding to its protease or non-protease ligands (Bres and Faissner, 2019). We sought to establish whether endocytosis of the ternary α2M-TG2-peptide complex was mediated by LRP-1 using pharmacologic inhibitors of clathrin mediated endocytosis.

elastase = experiment: Metabolism by elastase; format: in vitro ADME; conditions: role: substrate
Description: as §2

α2M = experiment: Co-endocytosis of HB230 and fluorescent α2M in NRK cells; format: cell-based; conditions: larger, but not smaller, puncta
Method: as §1
To obtain definitive evidence for co-endocytosis of HB230 and α2M, a fluorescent batch of α2M was prepared.

[4] = Endocytosis of fluorescent streptavidin by NRK cells; format: cell-based, rat; conditions: 2 μM HB2110, 1 μM Cy5-conjugated streptavidin
Method: FIG. 11: (A) Treating NRK cells with increasing concentrations of HB-3-003 in the presence of fluorescently tagged streptavidin leads to increased internalization of streptavidin after a 90 min treatment. (B) Quantification of dose response.
In order to determine the ability of this pathway to clear specifically targeted proteins from the extracellular environment, we synthesized a pentapeptide harboring the electrophilic warhead and a PEG-4 biotin conjugated to the DAB substituted Y amino acid (HB2110). Streptavidin is expected to bind to the biotin arm of the probe, and thus be endocytosed along with the rest of the complex as previously described. To test this hypothesis NRK cells were treated with 2 μM HB2110 and 1 μM Cy5-conjugated streptavidin.
We also synthesized the equivalent pentapeptide harbouring a Gln residue in the place of the electrophilic warhead, with biotin conjugated to the DAB substituted Y amino acid through a PEG linker (HB3-3). We then assed the ability of cells to endocytose fluorescent streptavidin in the presence of HB3-3 and α2M.

Structure (SMILES)	uptake by NRK cells in the presence of α2M ([1]; 100 μg/mL of α2M)	uptake by NRK cells ([1]; 1 TM (so in the source) exogenous probe, 90 min)	uptake by NRK cells on supplementation with α2M ([1]; NRK cells supplemented with increasing α2M)	resistance to metabolism by trypsin (trypsin)	metabolism by chymotrypsin (chymotrypsin)	co-localization with RFP-tagged LAMP-1 [2]	formation of large co-stained puncta (LRP-1 knockout MEFs)	resistance to metabolism by pepsin (pepsin)	localization relative to EEA-1 [3]	metabolism by carboxypeptidase (carboxypeptidase)	internalization of ternary complex (WT MEFs)	resistance to metabolism by elastase (elastase)	overlap with fluorescent α2M (α2M)	colocalization of Cy5-streptavidin with α2M [4]
CC(=O)N1CCC[C@H]1C(=O)N[C@@H](CC/C=C/C(=O)N(C)C)C(=O)N[C@@H](CCNC(=O)CCCCC[N+]1=C(/C=C/C=C/C=C2/N(C)c3ccc(S(=O)(=O)O)cc3C2(C)C)C(C)(C)c2cc(S(=O)(=O)[O-])ccc21)C(=O)N1CCC[C@H]1C(=O)N[C@@H](Cc1ccccc1)C(N)=O [HB-230, AcPro-HWE-(Dab-SCy5)-Pro-Phe]	robustly taken up	robust uptake	strong dose-dependent increase in uptake of HB230 up to ~100 μg/ml	resistance to metabolism	enzymatic deamidation at the C-terminus (CONH2→CO2H)	strongly co-localizes with RFP-tagged LAMP-1 in the large puncta	marked defect in their ability to form large co-stained puncta	resistance to metabolism	appear in distinct sub-cellular compartments for the most part	subsequent cleavage of the C-terminal phenylalanine	internalized the ternary complex	resistance to metabolism	strong overlap	–
CC(=O)N1CCC[C@H]1C(=O)N[C@@H](CC/C=C/C(=O)N(C)C)C(=O)N[C@@H](CCNC(=O)CCOCCOCCOCCOCCNC(=O)CCCC[C@@H]1SC[C@@H]2NC(=O)N[C@@H]21)C(=O)N1CCC[C@H]1C(=O)N[C@@H](Cc1ccccc1)C(N)=O [HB-2110] (Ac-P[X1][Dab]([PEG4-Biotin])PF-NH2)	–	–	–	–	–	–	–	–	–	–	–	–	–	found to colocalize with α2M in the lysosomal compartment

Source: patent US20260364210A1, “COMPOSITIONS AND METHODS FOR TRANSGLUTAMINASE-MEDIATED ENDOCYTOSIS” (The Board of Trustees of the Leland Stanford Junior …, priority 2022, published 2026)
